Measured values published in PMC7824787, “Design, Synthesis and In Vitro Investigation of Novel Basic Celastrol Carboxamides as Bio-Inspired Leishmanicidal Agents Endowed with Inhibitory Activity against Leishmania Hsp90” (Biomolecules, 2021).

Legend:
[1] = system: L. infantum promastigotes; assay: Antileishmanial activity on L. infantum promastigotes (MTT); assay type: cell-based; settings: Leishmania infantum, 72 h, 23 °C, MTT, read-out: Leishmania Promastigotes IC50, L. infantum
Method: (§1) Promastigote stage of L. infantum (MHOM/TN/80/IPT1, kindly provided by Dr. M. Gramiccia and Dr. T. Di Muccio, ISS, Roma) and L. tropica (MHOM/SY/2012/ISS3130) were cultured in RPMI 1640 medium (EuroClone) supplemented with 15% heat-inactivated fetal calf serum (EuroClone, Milan, Italy), 20 mM HEPES, and 2 mM L-glutamine at 23 °C. The MTT (3-[4.5-dimethylthiazol-2-yl]-2.5-diphenyltetrazolium bromide) method was used to estimate the 50% inhibitory concentration (IC50), with some modifications. Compounds were dissolved in DMSO and then diluted with medium to achieve the required concentrations. Test compounds were placed in 96 wells round bottom microplates and seven serial dilutions made. Amphotericin B was used as the reference antileishmanial drug. Parasites were diluted in complete medium to 5 × 10^6 parasites/mL and 100 μL of the suspension was seeded into the plates and incubated at 23 °C for 72 h. Then 20 μL of MTT solution (5 mg/mL) was added into each well, after 3 h the plates were centrifuged, the supernatants discarded and the resulting pellets dissolved in 100 μL of lysing buffer consisting of 20% (w/v) of a solution of SDS (Sigma), 40% of N,N-dimethylformamide (Merck) in H2O. The absorbance of the obtained solutions was measured at a wavelength of 550 nm with a reference at 650 nm with a microplate spectrophotometer (Synergy 4-Biotek, Milan, Italy) and analyzed with the Gen5® software for data processing.
(§2) The results are expressed as IC50, the dose of compound that is necessary to inhibit cell growth by 50%; each IC50 value is the mean ± standard deviation of at least three separate experiments performed in duplicate.

L. tropica promastigotes = assay: Antileishmanial activity on L. tropica promastigotes (MTT); assay type: cell-based; settings: Leishmania tropica, 72 h, 23 °C, MTT, read-out: Leishmania Promastigotes IC50, L. tropica
Method: as §1, §2

HMEC-1 = assay: Cytotoxicity on HMEC-1 (MTT); assay type: cell-based, human; settings: Homo sapiens, HMEC-1; 72 h, MTT; read-out: Healthy Cell Lines IC50, HMEC-1
Method: (§3) Cytotoxicity was evaluated on human microvascular endothelial cells (HMEC-1, provided by the Centers for Disease Control, Atlanta, GA, USA), on immortalized mouse C57Bl/6 bone marrow derived macrophages (BMDM) from wild type lineage (generated in the laboratories of Drs. Douglas Golenbock and Kate Fitzgerald, University of Massachusetts, Worcester, MA, USA) and on a human acute monocytic leukaemia cell line (THP-1).
(§4) HMEC-1 were maintained in MCDB 131 medium (Invitrogen, Milan, Italy) supplemented with 10% fetal calf serum (HyClone), 10 ng/mL of epidermal growth factor, 1 μg/mL of hydrocortisone, 2 mM glutamine and 20 mM HEPES buffer, at 37 °C in 5% CO2. BMDM were maintained in DMEM (Euroclone) medium supplemented with 10% fetal bovine serum (HyClone, Celbio, Milan, Italy), 2 mM glutamine, and 25 mM of HEPES buffer solution (Euroclone). THP-1 were maintained in RPMI supplemented with 10% heat-inactivated FCS, 50 µM 2-mercaptoethanol, 10 µM sodium pyruvate, 20 mM HEPES, and 2 mM glutamine. In order to achieve differentiation into macrophages, cells were treated with 10 ng/mL phorbol myristate acetate (PMA) for 72 h.
(§5) For the cytotoxicity assay, cells were seeded in 96 well flat bottom tissue culture clusters (Costar, New York, NY, USA) at the following concentrations: HMEC 10^5 cell/mL, BMDM at 10^6 cell/mL, THP1 at 5 × 10^5 cell/mL. After 24 h, cells were treated with serial dilutions of test compounds in a final volume of 200 µL/well. Cell proliferation was evaluated after 72 h using the MTT assay.
(§6) The absorbances were measured with a microplate spectrophotometer (Synergy 4-Biotek) at a test wavelength of 550 nm and a reference wavelength of 650 nm. The results are expressed as IC50 as the concentration inhibiting 50% of cell growth. Each IC50 value is the mean and standard deviation of at least three separate experiments performed in duplicate.

THP-1 = assay: Cytotoxicity on THP-1 (MTT); assay type: cell-based, human; settings: Homo sapiens, THP-1; PMA-differentiated, 72 h, MTT; read-out: Healthy Cell Lines IC50, THP-1
Method: as §3, §4, §5, §6

BMDM = assay: Cytotoxicity on BMDM (MTT); assay type: cell-based, mouse; settings: Mus musculus, BMDM; 72 h, MTT; read-out: Healthy Cell Lines IC50, BMDM
Method: as §3, §4, §5, §6

L. infantum amastigotes = assay: Antileishmanial activity on intramacrophage amastigotes of L. infantum; assay type: cell-based, Leishmania infantum
Method: Cell monolayers were then washed and incubated in the presence of test compounds for 72 h. Slides were fixed with methanol and stained with Giemsa. The percentage of infected macrophages in treated and non-treated cells was determined by light microscopy.

LbHsp90 = LbHsp90 (Leishmania braziliensis, UniProt A4HL70); assay: In vitro inhibition of the ATPase activity of LbHsp90 (Malachite Green Phosphate Assay); assay type: biochemical; settings: 7 μM LbHsp90, 27 °C, 60 min
Chain of LbHsp90 (A4HL70 entry or part of it): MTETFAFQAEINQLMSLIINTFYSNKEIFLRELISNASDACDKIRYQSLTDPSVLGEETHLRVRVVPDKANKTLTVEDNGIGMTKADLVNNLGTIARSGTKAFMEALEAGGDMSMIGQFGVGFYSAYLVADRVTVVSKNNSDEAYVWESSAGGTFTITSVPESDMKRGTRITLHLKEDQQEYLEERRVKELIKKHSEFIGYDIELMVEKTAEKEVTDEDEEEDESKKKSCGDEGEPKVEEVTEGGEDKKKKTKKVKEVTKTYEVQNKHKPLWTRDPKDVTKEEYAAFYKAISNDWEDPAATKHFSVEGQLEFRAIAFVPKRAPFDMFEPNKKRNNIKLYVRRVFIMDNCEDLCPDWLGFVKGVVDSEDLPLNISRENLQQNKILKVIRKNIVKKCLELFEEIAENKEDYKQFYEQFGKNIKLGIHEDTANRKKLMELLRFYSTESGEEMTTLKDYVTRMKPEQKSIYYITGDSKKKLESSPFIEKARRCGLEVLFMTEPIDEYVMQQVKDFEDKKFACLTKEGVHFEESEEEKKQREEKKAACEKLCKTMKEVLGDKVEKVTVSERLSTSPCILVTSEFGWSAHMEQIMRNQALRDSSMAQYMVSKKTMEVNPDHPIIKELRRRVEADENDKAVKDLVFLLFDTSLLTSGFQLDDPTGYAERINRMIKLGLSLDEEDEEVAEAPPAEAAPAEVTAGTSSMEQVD
Excerpt: To evaluate in vitro the modulatory activity of CE, PR and CE caboxamides, a full-length recombinant Hsp90 from L. braziliensis (LbHsp90) was produced in E. coli BL21 DE3 harboring the pET28a_LbHsp90 coding for the C-terminal His-tagged target chaperone (genbank number: XP_001567804.1, full sequence is reported in Appendix B). Pratically, the plasmid pET28a_LbHsp90, kindly donated by professor J.C. Borges, was transformed in E. coli BL21 DE3 using the TransformAid Bacterial Transformation Kit (Thermo Fisher, Waltham, MA, USA). Subsequently, the obtained transformants were grown overnight in LB medium containing 30 μg mL^−1 kanamycin (LBkan30) and then inoculated in 1 L SB kan30 medium (Yeast extract 30 g L^−1, Tryptone 20 g L^−1, NaCl 10 g L^−1) at 37 °C and 220 rpm. When the OD600 reached 0.5–1, gene expression was induced by the addition of 2 mL of 1 M IPTG solution in water and the culture was shifted at 30 °C for 24 h. After cell harvesting by centrifugation (5000 rpm for 30 min), the cell pellet was resuspended in 20 mL of wash buffer (20 mM HEPES buffer, pH 7.0, 500 mM NaCl, 20 mM imidazole) and recombinant E. coli BL21DE3 cells were disrupted by ultrasonication. LbHsp90 was subsequently purified using a Nickel Sepharose 6 Fast Flow agarose resin (Ni-NTA) (GE Healthcare, Milan, Italy) as follows. Soluble protein fraction was separated from cell debris by centrifugation (10,000 rpm for 30min) after cell ultrasonication, and clear lysates were incubated with the Ni-NTA resin for 90 min at 4 °C under mild shaking and loaded onto a glass column (10 × 110 mm). The resin was then washed with 10mL of wash buffer and His-tagged LbHsp90 was eluted using a 3 step gradient (10 mL washing buffer containing 100, 200, and 300 mM imidazole, respectively) and dialyzed against 20 mM HEPES buffer (20 mM, pH 7.5), at 4 °C overnight. The protein content was measured using the Bio-Rad Protein Assay (Hercules, CA, USA) according to the Bradford method and the protein purity was verified by SDS-PAGE analysis (10% T, 2.6% C). It is worth noting that to avoid interferences with the assays described below, proteins were purified and conserved in HEPES buffer (20 mM, pH 7.5) in place of the standard PB-buffer. Reported data are the mean of two experiments run in duplicate.
Modulatory activity toward the ATPase cycle of LbHsp90 was determined using a Malachite Green Phosphate Assay Kit (Catalog Number MAK307, Sigma-Aldrich®, St. Louis, MO, USA). Analyses were run in a 96-well plate directly following the quantitative formation of a green complex between Malachite Green, molybdate, and free orthophosphate (Pi) produced by ATP hydrolysis catalyzed by the chaperone. Color formation from the reaction was measured on a plate reader at 620 nm. Briefly, the IC50 of CE and its derivatives were extrapolated from a set of dose-response curves obtained by calculating the amount of Pi produced by LbHsp90 in the presence of different compounds concentrations.
Reactions were run in HEPES buffer (20 mM, pH 7.5) containing 3 mM MgCl2 and 50 mM KCl in the presence of different compounds concentrations ([…]), LbHsp90 (7 μM) and ATP (25 mM) at 27 °C for 60 min. OD620 was measured 30 min after Malachite Green reactants addition.
LbHsp90 native activity was measured by conducting the reaction in the presence of just LbHsp90 and ATP and extrapolating the concentration of Pi obtained.
Three sets of control experiments, (1) ATP background hydrolysis, (2) compounds-related interferences and (3) protein-related background coloration, were run as follow: • (1) ATP (25 mM) incubated at 27 °C for 60 min • (2) Compounds (different concentrations) incubated with ATP (25 mM) at 27 °C for 60 min • (3) LbHsp90 (7 μM) at 27 °C for 60 min
The in vitro performances of CE, PR and the carboxamides 1–11 (Figure 4) as potential inhibitors of the Leishmania braziliensis Hsp90 were investigated using Sigma-Aldrich® Malachite Green Phosphate Assay Kit. […]

Row | IC50 [1] | IC50 (L. tropica promastigotes) | IC50 (L. infantum amastigotes; Leishmania infantum, infected THP-1 macrophages, 72 h) | IC50 (LbHsp90) | melting point | Structure (SMILES) | IC50 (HMEC-1) | IC50 (THP-1) | IC50 (BMDM) | S.I. (selectivity index) (L. infantum amastigotes; ratio IC50 on THP-1 cell line / IC50 toward L. infantum amastigotes)
1 | 160 ± 50 nM | 170 ± 20 nM | 180 ± 30 nM | – | – | C[C@@H]1[C@H](O)[C@@H](C)/C=C/C=C/C=C/C=C/C=C/C=C/C=C/[C@H](O[C@@H]2O[C@H](C)[C@@H](O)[C@H](N)[C@@H]2O)C[C@@H]2O[C@](O)(C[C@@H](O)C[C@@H](O)[C@H](O)CC[C@@H](O)C[C@@H](O)CC(=O)O[C@H]1C)C[C@H](O)[C@H]2C(=O)O [AMP, amphotericin B, reference compound] | > 20000 nM | > 20000 nM | > 20000 nM | >109
2 | 200 ± 10 nM | 150 ± 40 nM | – | > 125000 nM | 211.1 to 215 °C | CC1=C(O)C(=O)C=C2C1=CC=C1[C@@]2(C)CC[C@@]2(C)[C@@H]3C[C@](C)(C(=O)NCCCNc4ccnc5cc(Cl)ccc45)CC[C@]3(C)CC[C@]12C [compound 7, (2R,4aS,6aS,12bR,14aS,14bR)-N-(3-((7-chloroquinolin-4-yl)amino)propyl)-10-hydroxy-2,4a,6a,9,12b,14a-hexamethyl-11-oxo-1,2,3,4,4a,5,6,6a,11,12b,13,14,14a,14b-tetradecahydropicene-2-carboxamide] | 130 ± 10 nM | 480 ± 170 nM | 1780 ± 530 nM | –
